Measured values taken from ChEMBL document CHEMBL1121597, “Synthesis and some pharmacological properties of [8-L-tryptophan]oxytocin” (1980).
Positions of bridges follow the written chain, without caps; N, C: chain ends. Residues, ends and D or L forms follow the SMILES beside them.

Key:
Rattus norvegicus [1] = test: Compound was evaluated for the intrauterine pressure assayed by intravenous injection into anesthetized rats pretreated with diethylstilbestrol; type: functional
Rattus norvegicus [2] = test: Compound was evaluated for the vasopressor activity when injected intravenously into anesthetized rats pretreated with phenoxybenzamine; type: functional

CC[C@H](C)[C@@H]1NC(=O)[C@H](Cc2ccc(O)cc2)NC(=O)[C@@H](N)CSSC[C@@H](C(=O)N2CCC[C@H]2C(=O)N[C@@H](Cc2c[nH]c3ccccc23)C(=O)NCC(N)=O)NC(=O)[C@H](CC(N)=O)NC(=O)[C@H](CCC(N)=O)NC1=O (H-CYIQNCPWG-NH2; disulfide 1-6)
Activity (Rattus norvegicus [1]): 50 U mg-1 | Activity (Rattus norvegicus [2]): <0.25 U mg-1
